# Patent US8980881B2, “Crystalline forms of (R)-8-chloro-1-methyl-2,3,4,5-tetrahydro-1H-3-benzazepine hydrochloride” (priority 2004, dated 2015)
# Entries after “also recorded” stand apart in the source; their conditions may differ. Where a name gives a salt, the structure may show the parent alone.
# Experiments:
# [1] = Heat stability of crystalline form, XRPD analysis after heating; type: physicochemical
# Experimental: A sample of Form I was heated to 160° C. in a TGA furnace for about 15 min when heated at a rate of about 10° C./min.
# A sample of Form III was heated to 60° C. for at least 2 hours.
# A sample of Form III was heated to 60° C. for one day.
# A sample of Form III was heated to 80° C. for 30 minutes.
# A sample of Form III was heated to 80° C. for 1 day.
# [2] = Dynamic vapor sorption (DVS) scan, with XRPD after the cycle; type: physicochemical; details: for crystalline form after DVS cycle: XRPD after the DVS cycle; for DVS: deliquescent above / DVS: hygroscopicity / DVS: adsorbs (moisture) / DVS: adsorption transition at: dynamic vapor sorption; for moisture adsorbed: between about 40 and about 80% RH, calculated from DVS
# Text: FIG. 4 depicts a dynamic vapor sorption (DVS) scan for crystalline Form I of the invention (VTI dynamic vapor desorption analyzer).
# FIG. 8 depicts a dynamic vapor sorption (DVS) scan for crystalline Form II of the invention (VTI dynamic vapor desorption analyzer).
# FIG. 12 depicts a dynamic vapor sorption (DVS) scan for crystalline Form III of the invention.
# The various crystalline forms of (R)-8-chloro-1-methyl-2,3,4,5-tetrahydro-1H-3-benzazepine hydrochloride can be identified by their unique solid state signatures with respect to, for example, differential scanning calorimetry (DSC), X-ray powder diffraction (XRPD), and other solid state methods. Further characterization with respect to water or solvent content of the crystalline forms can be gauged by any of various routine methods such as thermogravimetric analysis (TGA), dynamic vapor sorption (DVS), DSC and other techniques. For DSC, it is known that the temperatures observed will depend upon the rate of temperature change as well as sample preparation technique and the particular instrument employed. Thus, the values reported herein relating to DSC thermograms can vary by plus or minus about 4° C. For XRPD, the relative intensities of the peaks can vary, depending upon the sample preparation technique, the sample mounting procedure and the particular instrument employed. Moreover, instrument variation and other factors can often affect the 2-theta values. Therefore, the peak assignments of diffraction patterns can vary by plus or minus about 0.2°.
# XRPD carried out on both Forms I and II after the DVS cycle confirmed this conversion.
smiles,measurement,setting,value
"C[C@H]1CNCCc2ccc(Cl)cc21 [Form III, (R)-8-chloro-1-methyl-2,3,4,5-tetrahydro-1H-3-benzazepine hydrochloride Hemihydrate]",crystal form after heating (XRPD),[1]; heated to 60° C. for at least 2 hours,substantially no change in crystal form
same,crystal form after heating (XRPD),[1]; heated to 60° C. for one day,partial conversion to Form I
same,crystal form after heating (XRPD),[1]; heated to 80° C. for 30 minutes,partial conversion to Form I
same,crystal form after heating (XRPD),[1]; heated to 80° C. for 1 day,partial conversion to Form I
same,crystalline form after DVS cycle,[2]; hydrochloride Hemihydrate,no change in crystalline form
same,DVS: adsorption at 90% RH,[2]; at 90% RH,adsorption of less than 0.5%
same,water adsorbed,[2]; at 90% RH,less than 0.5 wt %
same,DVS: deliquescent above,[2]; hydrochloride Hemihydrate,deliquescent above 95% RH;
same,DVS: hygroscopicity,[2]; hydrochloride Hemihydrate,substantially non-hygroscopic
"C[C@H]1CNCCc2ccc(Cl)cc21 [Form II, (R)-8-chloro-1-methyl-2,3,4,5-tetrahydro-1H-3-benzazepine hydrochloride]",crystalline form after DVS cycle,[2]; hydrochloride,conversion to the hemihydrate (Form III); also recorded: crystalline form changes
same,moisture adsorbed,[2],about 3.8 wt %
same,DVS: adsorbs (moisture),[2],adsorbs about 3.8 wt %;
same,DVS: adsorption transition at,[2]; hydrochloride,about 40% RH;
same,DVS: deliquescent above,[2]; hydrochloride,deliquescent above 90% RH
same,DVS: hygroscopicity,[2]; hydrochloride,hygroscopic; also recorded: hygroscopic;
same,conversion upon exposure to moisture,[2],readily convert to Form III
"C[C@H]1CNCCc2ccc(Cl)cc21 [Form I, (R)-8-chloro-1-methyl-2,3,4,5-tetrahydro-1H-3-benzazepine hydrochloride]",crystal form after heating (XRPD),"[1]; heated to 160° C. in a TGA furnace for about 15 min, about 10° C./min",no change in crystal form
same,crystalline form after DVS cycle,[2]; hydrochloride,conversion to the hemihydrate (Form III); also recorded: crystalline form changes
same,moisture adsorbed,[2],about 3.8 wt %
same,DVS: adsorbs (moisture),[2],adsorbs about 3.8 wt %;
same,DVS: adsorption transition at,[2]; hydrochloride,about 60% RH;
same,DVS: deliquescent above,[2]; hydrochloride,deliquescent above 90% RH
same,DVS: hygroscopicity,[2]; hydrochloride,hygroscopic; also recorded: hygroscopic;
same,conversion upon exposure to moisture,[2],readily convert to Form III
